Experimental data from US10821128B2, “Treatment of cancer by systemic administration of Dbait molecules” (ONXEO, priority 2016, dated 2020).

Assays:
HT29 [1] = assay: Clonogenic survival assay; assay type: cell-based, human
Experimental: (§1) CRC cell lines; HT29 (mutated p53, ATCC: HTB-38) and HCT116 (wild-type p53, ATCC: CCL-247) were purchased directly from ATCC. These cells were authenticated by ATCC by generating human short tandem repeat profiles by simultaneously amplifying multiple STR loci and amelogenin (for gender determination) using the Promega PowerPlex® Systems. These cells were cultured in the laboratory for less than 6 months from the date of purchase in DMEM medium supplemented with 10% fetal bovine serum, 1% sodium pyruvate, […] (Invitrogen, Carlsbad, Calif.), when the current study was performed. HT29 cell line stably expressing luciferase was established in-house using a pGL4.5 luciferase reporter vector (luc2/CMV/Hygro) (Promega). HT29 luciferase cells were supplemented with 200 μg/ml hygromycin B. All cell lines were additionally subjected to mycoplasma testing in-house and were free of mycoplasma contamination (Biovalley, France).
(§2) Cells were transfected with 2.5 μgs of Dbait (5′-[…]-(H) […]-3′ SEQ ID No 9) (Eurogentec, Belgium) where H is a hexaethyleneglycol linker and underlined nucleotides are phosphorothioates. The cells were sham transfected with an 8 bp oligonucleotide control (8H) complexed with 11 kDa polyethyleneimine (PEI) as previously described (Quantz et al, 2009, PloS one, 4, e6298).
(§3) Cells were transfected with Dbait and left untreated or treated with 5 μM of OXA and 2.5 μM of 5-FU for 1 hr. The cells were diluted, allowed to grow for 14 days and the clones were stained with crystal violet and counted.

HCT116 [2] = assay: Clonogenic survival assay; assay type: cell-based, human
Experimental: as §1, §2, §3

HT29 [3] = assay: In vitro proliferation assay (live cell counts); assay type: cell-based, human
Experimental: as §1, §2
(§4) Cells were seeded at a density of 3×10^4 cells/60 mm dishes and transfected with Dbait. Following treatment, cells were washed and left untreated or treated with a combination of 5 μM of oxaliplatin (OXA, Sigma) and 2.5 μM of 5-fluouracil (5-FU, Sigma) and live cell counts were performed on days 1, 3, 5, 6, 7 and 9.

HCT116 [4] = assay: In vitro proliferation assay (live cell counts); assay type: cell-based, human
Experimental: as §1, §2, §4

[5] = test system: pan-nuclear phosphorylation of H2AX in HCT116; assay: γH2AX immunofluorescence (DNA-PK activation); assay type: cell-based, human
Experimental: (§5) The inventors have previously shown that Dbait acts by activating DNA-PK kinase, which phosphorylate numerous targets including the histone variant H2AX.
(§6) γH2AX immunofluorescence was performed as described previously using a monoclonal anti-phospho-Histone H2A.X (Ser139) Antibody, clone JBW301 (1:500 dilution; 05-636, Millipore, USA) (9).

[6] = test system: pan-nuclear phosphorylation of H2AX in HT29; assay: γH2AX immunofluorescence (DNA-PK activation); assay type: cell-based, human
Experimental: as §5, §6

MDA-MB-231 tumor = assay: DT01 with carboplatin in MDA-MB-231 TNBC model; assay type: in vivo, athymic nude mouse; settings: carboplatin alone treated group; 177 days of the experiment
Experimental: Treatment was administered in 3 cycles with a 2 week gap between cycles either alone or in association with carboplatin. Only one dose of carboplatin was injected per cycle of DT01 treatment (2nd day of each cycle). The dose of carboplatin was 50 mg/kg per cycle. Treatments were performed over 7 weeks (3 cycles of treatment).
Antitumor activity was evaluated by measuring tumor volume during and after treatment. DT01 was administered intraperitoneally during 3 sessions of 5 days treatment with two weeks of rest between each session. Carboplatin was administered once a week on the second day of each DT01 treatment cycle.
The MDA-MB231 cell line is derived from a human breast adenocarcinoma and can be ordered at the ATCC. The MDA-MB231 cells were grafted in the mammary fat pad with 10·10^6 cells re-suspended in 0.1 ml of DMEM with no additive. The athymic nude mouse is immunodeficient, thus enabling the xenotransplantation and growth of human tumors.

[7] = combination of Dbait with chemotherapy (OXA/5-FU), p=0.05
[8] = single treatment (Dbait alone, or OXA and 5-FU alone)

| Compound | clonogenic survival (HT29 [1]; [7]) | clonogenic survival (HT29 [1]; single treatment (Dbait alone, or chemotherapy alone p=0.08)) | lethality (HCT116 [2]; Dbait treatment alone, p<0.01) | clonogenic survival (HCT116 [2]; [7]) | cell proliferation (number of living cells) (HT29 [3]; [8]) | level of proliferation compared to chemotherapy alone (HT29 [3]; transfected with Dbait prior to OXA/5-FU, day 9, p<0.02) | cell proliferation (number of living cells) (HCT116 [4]; [8]) | level of proliferation compared to chemotherapy alone (HCT116 [4]; transfected with Dbait prior to OXA/5-FU, day 9, p<0.001) | activity by pan-nuclear phosphorylation of H2AX [5] | activity by pan-nuclear phosphorylation of H2AX [6] | abnormal death (MDA-MB-231 tumor) |
| --- | --- | --- | --- | --- | --- | --- | --- | --- | --- | --- | --- |
| 5′-GCTGTGCCCACAACCCAGCAAACAAGCCTAGA-(H) TCTAGGCTTGTTTGCTGGGTTGTGGGCACAGC-3′ (hexaethyleneglycol linker; phosphorothioates; nucleic acid molecule Id; note=“at the 3′ end of the complementary strand the three last nucleotides with phosphorothioate or methylphosphonate backbone”; modified_base (1)..(3) mod_base= phosphorothioate or methylphosphonate backbone; (1)..(1) at the 5′ end, Lm = carboxamido oligoethylene glycol + C = single or double chain fatty acids, cholesterol, sugars, peptides or proteins; stem_loop (1)..(3) [Dbait] | significant reduction in survival | no significant effect | approximately 30% | significant reduction in survival | no effect on cell proliferation | significantly reduced | no effect on cell proliferation | significantly reduced | confirmed the activity | confirmed the activity |  |
| N.N.O=C([O-])C1(C(=O)[O-])CCC1.[Pt+2] [carboplatin] |  |  |  |  |  |  |  |  |  |  | one |
